Publication PMC11301271 (FEBS Open Bio, 2024)
Values joined by “and” are separate entries in the source; they are usually repeats but may differ in a detail not shown here. Equal entries are not always repeated. Where two headings read alike, the source gives them in different places. Each block holds one molecule with its values, some of them ahead of it.

Experiments:
[1] = biological target: T1, human MK (Homo sapiens, UniProt Q03426); assay: Steady-state kinetics of human MK (Michaelis-Menten, substrates); type: biochemical; conditions: one substrate varied, the other fixed at 5 mM; 32 °C; read-out: Km of recombinant MK for the substrate
T1 construct: His6 (N); made in house; host or cells: E. coli BL21(DE3)

[2] = biological target: T1, human MK; design: method as in PMID 9325256, PMID 18302342; conditions: ref [19], [20]; read-out: Km of MK for the substrate, previously reported; cited from earlier work
[3] = biological target: T1, human MK; assay: MK coupled enzyme assay (pyruvate kinase/lactate dehydrogenase): inhibitor screening and IC50; type: biochemical; conditions: for IC50: read-out: IC50 for MK inhibition; for MK inhibition, result in words: screening, 10 μM compound
Procedure: A pET‐15b plasmid encoding human MK (UniProt Q03426) with an N‐terminal His6‐tag was transformed into E. coli BL21(DE3) cells (New England Biolabs, Whitby, ON, Canada). The cells were cultured in LB at 37 °C until the OD600 of the culture reached 0.6. Expression of the recombinant enzyme was induced by 0.1 mM IPTG for 6 h at 37 °C. The cells were lysed by sonication, and the lysate was subjected to Ni‐affinity chromatography (HisTrap HP, Cytiva, Vancouver, BC, Canada) followed by size exclusion chromatography (HiLoad Superdex 200 PG, Cytiva) (Fig. 2A). […] The purified enzyme was flash‐frozen in liquid nitrogen and stored at −80 °C. The final sample buffer (i.e., the size exclusion buffer) consisted of 10 mM HEPES (pH 7.5), 500 mM NaCl, 2 mM β‐mercaptoethanol, and 5% glycerol.
(§1) MK activity was measured by using a coupled enzyme assay as previously described. The reporter enzymes, pyruvate kinase and lactate dehydrogenase, were purchased as a pre‐mixed buffered solution from MilliporeSigma. […] All reactions were carried out at 32 °C in triplicate unless otherwise noted. Each reaction was initiated by adding 10 μL of MK (50 μg mL^−1; diluted from the −80 °C stock in 50 mM HEPES, pH 7.5) to 990 μL of the reaction buffer containing all the other components except MK (pre‐incubated at 32 °C for 5 min) and immediately transferring to a 1 mL disposable polystyrene cuvette (Fisherbrand) pre‐placed in the temperature‐controlled cell holder of an Agilent 8453 UV–visible Spectroscopy System. Blank reactions were added with 10 μL of 50 mM HEPES (pH 7.5) only. Reaction progress was continuously monitored by measuring the A340 for 1 min. To convert the measured absorbance to product concentration, an absorption coefficient of NADH determined from a calibration curve (5.4107 cm^−1 mM ^−1) was used. Initial rate experiments were conducted by varying the concentration of one substrate while keeping the other at a saturating concentration of 5 mM. Kinetic parameters were determined by fitting the rate data to the Michaelis–Menten model (Eqn 1), vi=VmaxS/Km+S, where [S] represents the concentration of the varied substrate. Data analysis was performed with […] PRISM software (GraphPad Software, Boston, MA, USA).
To prepare master stock solutions, the phosphonate compounds were dissolved in Milli‐Q water to a concentration of 20 mM, either as monosodium salts (monophosphonate compounds) or as trisodium salts (bisphosphonate compounds). Their effects on MK activity were evaluated by using the coupled enzyme assay described above. Each compound was tested at two concentrations: 1 and 10 μM.
To determine the IC 50, a more refined inhibition response across a broader range of inhibitor concentrations was measured. Typically, nine different inhibitor concentrations spanning a 10 000‐fold concentration range were used. Dose–response curves were generated by fitting the inhibition data to the following three‐parameter dose–response equation (Eqn 2), where Max and Min denote the maximum and minimum response, respectively: Response=Min+Max−Min/1+I/IC50.

[4] = biological target: T2, FPPS (Homo sapiens, UniProt P14324); conditions: read-out: Kd, binding affinity of FPP for FPPS; ref [21]; cited from earlier work
T2 sequence (P14324 1-419): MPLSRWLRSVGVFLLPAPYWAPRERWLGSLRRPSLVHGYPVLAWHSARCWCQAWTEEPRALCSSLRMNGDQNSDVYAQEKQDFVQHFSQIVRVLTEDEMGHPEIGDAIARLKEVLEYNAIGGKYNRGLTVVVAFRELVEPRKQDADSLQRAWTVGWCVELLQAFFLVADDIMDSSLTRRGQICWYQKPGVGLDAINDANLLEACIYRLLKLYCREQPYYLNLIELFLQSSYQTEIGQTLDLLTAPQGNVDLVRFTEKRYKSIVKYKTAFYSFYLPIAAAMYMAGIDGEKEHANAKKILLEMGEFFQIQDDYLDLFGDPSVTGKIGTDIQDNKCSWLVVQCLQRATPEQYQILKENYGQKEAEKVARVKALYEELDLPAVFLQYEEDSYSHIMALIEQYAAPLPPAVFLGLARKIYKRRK

[5] = biological target: T1, human MK; assay: Mode of inhibition and Ki determination, initial rate experiments with MK; type: biochemical; conditions: for Ki' (ATP-bound enzyme), mixed inhibition model with respect to ATP: ATP varied 0.05-1 mM, MVA 5 mM; for Ki', uncompetitive inhibition model with respect to MVA: MVA varied 0.01-0.2 mM, ATP 5 mM
Procedure: as §1
In all experiments, one substrate was added at a constant concentration of 5 mM. […] Each inhibitor was tested at four different concentrations ranging from 0 to 200 nM. Data analysis was performed with […] PRISM software. The initial rates were fitted to steady‐state equations describing competitive inhibition model (Eqn 3), vi=VmaxS/Km1+I/Ki+S, noncompetitive inhibition model (Eqn 4), vi=VmaxS/1+I/Ki/Km+S, uncompetitive inhibition model (Eqn 5), vi=VmaxS/1+I/Ki^′/Km/1+I/Ki^′+S, and mixed inhibition model (Eqn 6), vi=VmaxS/1+I/Ki^′/Km1+I/Ki/1+I/Ki^′+S, where [S] represents the concentration of the varied substrate. The selection of the most appropriate models was determined through the extra sum‐of‐squares F test as implemented in the software.

[6] = biological target: T2, FPPS; assay: Inhibition of FPPS; type: biochemical; conditions: read-out: inhibition of FPPS at 10 μM; 10 μM compound; unpublished data

T1 sequence (Q03426 whole entry): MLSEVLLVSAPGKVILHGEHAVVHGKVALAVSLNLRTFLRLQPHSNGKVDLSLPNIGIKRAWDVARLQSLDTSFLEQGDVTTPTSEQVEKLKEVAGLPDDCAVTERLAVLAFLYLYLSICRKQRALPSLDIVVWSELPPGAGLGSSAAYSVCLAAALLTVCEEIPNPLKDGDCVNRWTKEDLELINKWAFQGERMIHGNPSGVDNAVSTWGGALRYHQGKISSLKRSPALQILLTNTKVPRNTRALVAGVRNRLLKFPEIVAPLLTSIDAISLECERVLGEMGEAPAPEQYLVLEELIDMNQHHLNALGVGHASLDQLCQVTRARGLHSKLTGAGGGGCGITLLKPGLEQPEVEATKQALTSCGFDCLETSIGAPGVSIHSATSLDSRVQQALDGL

Structure (SMILES): C[C@@](O)(CCO)CC(=O)O [MVA, mevalonic acid]
- Km [1]: 37 µM
- Km [2]: 24 µM and 40.8 µM

Structure (SMILES): Cc1ccc(-c2cc3c(NC(Cc4cccc(F)c4)P(=O)(O)O)ncnc3s2)cc1OCC(C)C (stereo not drawn) [Compound 9, (2‐(3‐Fluorophenyl)‐1‐((6‐(3‐isobutoxy‐4‐methylphenyl)thieno[2,3‐d]pyrimidin‐4‐yl)amino)ethyl)phosphonic acid]
- IC50 [3]: 1000 nM

Structure (SMILES): CC(C)=CCC/C(C)=C/CC/C(C)=C/COP(=O)(O)OP(=O)(O)O [FPP, farnesyl pyrophosphate, reference compound]
- inhibition at 1 µM ([3]; read-out: inhibition of the MK reaction at 1 μM): 96%

Structure (SMILES): O=P(O)(O)C(Nc1ncnc2sc(-c3ccc(F)cc3)cc12)c1ccccc1 (stereo not drawn) [Compound 12, (((6‐(4‐fluorophenyl)thieno[2,3‐d]pyrimidin‐4‐yl)amino)(phenyl)methyl)phosphonic acid]
- IC50 [3]: 46 nM

Structure (SMILES): Nc1ncnc2c1ncn2[C@@H]1O[C@H](COP(=O)(O)OP(=O)(O)OP(=O)(O)O)[C@@H](O)[C@H]1O [ATP]
- Km [1]: 61 µM

Structure (SMILES): Cc1ccc(-c2cc3c(NC(Cc4ccccc4)P(=O)(O)O)ncnc3s2)cc1OC1CC1 (stereo not drawn) [Compound 10, (1‐((6‐(3‐Cyclopropoxy‐4‐methylphenyl)thieno[2,3‐d]pyrimidin‐4‐yl)amino)‐2‐phenylethyl)phosphonic acid]
- IC50 [3]: 1600 nM

Structure (SMILES): O=P(O)(O)C(Nc1ncnc2sc(-c3cccc(C(F)(F)F)c3)cc12)c1ccccc1 (stereo not drawn) [Compound 14, (phenyl((6‐(3‐(trifluoromethyl)phenyl)thieno[2,3‐d]pyrimidin‐4‐yl)amino)methyl)phosphonic acid]
- IC50 [3]: 120 nM

Further lines, with some results ahead:

- IC50 [3]: 1900 nM
Structure (SMILES): COc1cc(C)c(Cl)cc1-c1cc2c(NC(c3ccccc3)P(=O)(O)O)ncnc2s1 (stereo not drawn) [Compound 2]

- IC50 [3]: 12 nM
Structure (SMILES): CC(C)=CCC/C(C)=C/CC/C(C)=C/CO[P@@](=O)(O)OP(=O)(O)O (stereo in doubt) [FPP, farnesyl pyrophosphate, reference compound]
- Kd [4]: 5000 to 6000 nM

- IC50 [3]: 3300 nM
Structure (SMILES): COc1cccc(OC)c1-c1cc2c(NC(c3ccccc3)P(=O)(O)O)ncnc2s1 (stereo not drawn) [Compound 13, (((6‐(2,6‐dimethoxyphenyl)thieno[2,3‐d]pyrimidin‐4‐yl)amino)(phenyl)methyl)phosphonic acid]

- IC50 [3]: 2300 nM
Structure (SMILES): COc1cc(C)c(F)cc1-c1cc2c(NC(c3ccccc3)P(=O)(O)O)ncnc2s1 (stereo not drawn) [Compound 15]

- IC50 [3]: 8.1 nM
- Ki [5]: 3.1 nM
- Ki' (ATP-bound enzyme), mixed inhibition model with respect to ATP [5]: 14 nM
- Ki', uncompetitive inhibition model with respect to MVA [5]: 10 nM
- inhibition at 10 µM [6]: < 50%
Structure (SMILES): Cn1cc(CCP(=O)(O)O)c2cc(-c3ccc(C(F)(F)F)cc3)ccc21 [Compound 16, 2‐(1‐Methyl‐5‐(4‐(trifluoromethyl)phenyl)‐1H‐indol‐3‐yl)ethylphosphonic acid]

- MK inhibition, result in words [3]: Inactive at 10 μM
Structure (SMILES): O=P(O)(O)CNc1ncnc2sccc12 [Compound 1]

- IC50 [3]: 2500 nM
Structure (SMILES): Cc1ccc(-c2cc3c(NC(Cc4ccccc4)P(=O)(O)O)ncnc3s2)cc1Cl (stereo not drawn) [Compound 6]

- MK inhibition, result in words [3]: Inactive at 10 μM
Structure (SMILES): O=P(O)(O)C(Nc1ncnc2sc(-c3cccc(C(F)(F)F)c3)cc12)P(=O)(O)O [Compound 17]

- IC50 [3]: 42 nM
- Ki [5]: 22 nM
- Ki'/Ki ratio ([5]; ATP as varied substrate, mixed inhibition model): ~ 17
- Ki' (ATP-bound enzyme), mixed inhibition model with respect to ATP [5]: 380 nM
- Ki', uncompetitive inhibition model with respect to MVA [5]: 140 nM
- inhibition at 10 µM [6]: < 50%
Structure (SMILES): O=P(O)(O)C(Nc1ncnc2sc(-c3ccc(C(F)(F)F)cc3)cc12)c1ccccc1 (stereo not drawn) [Compound 11, (phenyl((6‐(4‐(trifluoromethyl)phenyl)thieno[2,3‐d]pyrimidin‐4‐yl)amino)methyl)phosphonic acid]
